# Results: PubChem BioAssay (NCI)
#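 Cells were grown in 96-well plates and exposed to each compound for 48 hours at five concentrations; endpoints were interpolated linearly between bracketing concentrations, or set to the highest concentration if not reached. At the GI50, growth is halved. TGI denotes the concentration required for complete inhibition of growth.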
# Tests used:
# Experiment in all cases: NCI tumour cell line growth inhibition, 48 h
# M14 melanoma = system: M14 melanoma
# RPMI-8226 leukemia = system: RPMI-8226 leukemia
# SNB-19 CNS = system: SNB-19 CNS
# HCC-2998 colon = system: HCC-2998 colon
# UACC-62 melanoma = system: UACC-62 melanoma
# HCT-15 colon = system: HCT-15 colon
# SF-539 CNS = system: SF-539 CNS
# BT-549 breast = system: BT-549 breast
# NCI-H226 lung = system: NCI-H226 lung
# HOP-62 NSCLC = system: HOP-62 NSCLC
# A498 renal = system: A498 renal
# RXF 393 renal = system: RXF 393 renal
# DU-145 prostate = system: DU-145 prostate
# UO-31 renal = system: UO-31 renal
# CCRF-CEM leukemia = system: CCRF-CEM leukemia
# SR leukemia = system: SR leukemia
# NCI-H522 lung = system: NCI-H522 lung
# OVCAR-3 ovarian = system: OVCAR-3 ovarian
# NCI-H23 lung = system: NCI-H23 lung
# MCF7 breast = system: MCF7 breast
# COLO 205 colon = system: COLO 205 colon
# MDA-MB-435 = system: MDA-MB-435
# KM12 colon = system: KM12 colon
# OVCAR-4 ovarian = system: OVCAR-4 ovarian
# MOLT-4 leukemia = system: MOLT-4 leukemia
# SW-620 colon = system: SW-620 colon
# SF-295 CNS = system: SF-295 CNS
# HS 578T breast = system: HS 578T breast
# SN12C renal = system: SN12C renal
# MDA-MB-231 breast = system: MDA-MB-231 breast
# TK-10 renal = system: TK-10 renal
# HOP-92 NSCLC = system: HOP-92 NSCLC
# U251 CNS = system: U251 CNS
# K-562 leukemia = system: K-562 leukemia
# SK-MEL-28 melanoma = system: SK-MEL-28 melanoma
# OVCAR-5 ovarian = system: OVCAR-5 ovarian
# 786-0 renal = system: 786-0 renal
# SK-MEL-2 melanoma = system: SK-MEL-2 melanoma
# HCT-116 colon = system: HCT-116 colon
# A549 NSCLC = system: A549 NSCLC
# OVCAR-8 ovarian = system: OVCAR-8 ovarian
# IGROV1 ovarian = system: IGROV1 ovarian
# EKVX NSCLC = system: EKVX NSCLC
# NCI-H460 lung = system: NCI-H460 lung
# HL-60(TB) leukemia = system: HL-60(TB) leukemia
# UACC-257 melanoma = system: UACC-257 melanoma
# ACHN renal = system: ACHN renal
# LOX IMVI melanoma = system: LOX IMVI melanoma
# SF-268 CNS = system: SF-268 CNS
# SK-MEL-5 melanoma = system: SK-MEL-5 melanoma
# CAKI-1 renal = system: CAKI-1 renal
# NCI/ADR-RES ovarian = system: NCI/ADR-RES ovarian
# SK-OV-3 ovarian = system: SK-OV-3 ovarian
# PC-3 prostate = system: PC-3 prostate
structure (smiles),measurement,setting,value
O[C@H]1C=C2[C@H](C[C@@H]1O)CN1C[C@H]2c2cc3c(cc21)OCO3,GI50,M14 melanoma,24.9 µM
same,TGI,M14 melanoma,> 100 µM
same,GI50,RPMI-8226 leukemia,35.8 µM
same,TGI,RPMI-8226 leukemia,> 100 µM
same,GI50,SNB-19 CNS,24.9 µM
same,TGI,SNB-19 CNS,> 100 µM
same,GI50,HCC-2998 colon,20.4 µM
same,TGI,HCC-2998 colon,56 µM
same,GI50,UACC-62 melanoma,22.1 µM
same,TGI,UACC-62 melanoma,96.2 µM
same,GI50,HCT-15 colon,30.1 µM
same,TGI,HCT-15 colon,> 100 µM
same,GI50,SF-539 CNS,22.4 µM
same,TGI,SF-539 CNS,80.2 µM
same,GI50,BT-549 breast,37.8 µM
same,TGI,BT-549 breast,> 100 µM
same,GI50,NCI-H226 lung,22.1 µM
same,TGI,NCI-H226 lung,70.3 µM
same,GI50,HOP-62 NSCLC,30.5 µM
same,TGI,HOP-62 NSCLC,> 100 µM
same,GI50,A498 renal,81.8 µM
same,TGI,A498 renal,> 100 µM
same,GI50,RXF 393 renal,50.3 µM
same,TGI,RXF 393 renal,> 100 µM
same,GI50,DU-145 prostate,19 µM
same,TGI,DU-145 prostate,> 100 µM
same,GI50,UO-31 renal,61.2 µM
same,TGI,UO-31 renal,> 100 µM
same,GI50,CCRF-CEM leukemia,> 100 µM
same,TGI,CCRF-CEM leukemia,> 100 µM
same,GI50,SR leukemia,41 µM
same,TGI,SR leukemia,> 100 µM
same,GI50,NCI-H522 lung,94.5 µM
same,TGI,NCI-H522 lung,> 100 µM
same,GI50,OVCAR-3 ovarian,42.1 µM
same,TGI,OVCAR-3 ovarian,84.6 µM
same,GI50,NCI-H23 lung,29.3 µM
same,TGI,NCI-H23 lung,96.6 µM
same,GI50,MCF7 breast,28.8 µM
same,TGI,MCF7 breast,> 100 µM
same,GI50,COLO 205 colon,21.4 µM
same,TGI,COLO 205 colon,> 100 µM
same,GI50,MDA-MB-435,20.1 µM
same,TGI,MDA-MB-435,90.4 µM
same,GI50,KM12 colon,23.4 µM
same,TGI,KM12 colon,> 100 µM
same,GI50,OVCAR-4 ovarian,32.7 µM
same,TGI,OVCAR-4 ovarian,73 µM
same,GI50,MOLT-4 leukemia,> 100 µM
same,TGI,MOLT-4 leukemia,> 100 µM
same,GI50,SW-620 colon,49.1 µM
same,TGI,SW-620 colon,> 100 µM
same,GI50,SF-295 CNS,15.1 µM
same,TGI,SF-295 CNS,67.2 µM
same,GI50,HS 578T breast,79.9 µM
same,TGI,HS 578T breast,> 100 µM
same,GI50,SN12C renal,18 µM
same,TGI,SN12C renal,58.9 µM
same,GI50,MDA-MB-231 breast,33 µM
same,TGI,MDA-MB-231 breast,> 100 µM
same,GI50,TK-10 renal,20.3 µM
same,TGI,TK-10 renal,76.6 µM
same,GI50,HOP-92 NSCLC,83.1 µM
same,TGI,HOP-92 NSCLC,> 100 µM
same,GI50,U251 CNS,27.6 µM
same,TGI,U251 CNS,94.1 µM
same,GI50,K-562 leukemia,49.9 µM
same,TGI,K-562 leukemia,> 100 µM
same,GI50,SK-MEL-28 melanoma,19 µM
same,TGI,SK-MEL-28 melanoma,87.7 µM
same,GI50,OVCAR-5 ovarian,30.2 µM
same,TGI,OVCAR-5 ovarian,> 100 µM
same,GI50,786-0 renal,25.5 µM
same,TGI,786-0 renal,> 100 µM
same,GI50,SK-MEL-2 melanoma,99.5 µM
same,TGI,SK-MEL-2 melanoma,> 100 µM
same,GI50,HCT-116 colon,21.6 µM
same,TGI,HCT-116 colon,> 100 µM
same,GI50,A549 NSCLC,28.2 µM
same,TGI,A549 NSCLC,88.8 µM
same,GI50,OVCAR-8 ovarian,30.2 µM
same,TGI,OVCAR-8 ovarian,> 100 µM
same,GI50,IGROV1 ovarian,62 µM
same,TGI,IGROV1 ovarian,> 100 µM
same,GI50,EKVX NSCLC,39.6 µM
same,TGI,EKVX NSCLC,> 100 µM
same,GI50,NCI-H460 lung,21.7 µM
same,TGI,NCI-H460 lung,> 100 µM
same,GI50,HL-60(TB) leukemia,23.3 µM
same,TGI,HL-60(TB) leukemia,87.5 µM
same,GI50,UACC-257 melanoma,41.6 µM
same,TGI,UACC-257 melanoma,> 100 µM
same,GI50,ACHN renal,8.92 µM
same,TGI,ACHN renal,36.3 µM
same,GI50,LOX IMVI melanoma,18.7 µM
same,TGI,LOX IMVI melanoma,55.5 µM
same,GI50,SF-268 CNS,25.4 µM
same,TGI,SF-268 CNS,86.5 µM
same,GI50,SK-MEL-5 melanoma,29.4 µM
same,TGI,SK-MEL-5 melanoma,> 100 µM
same,GI50,CAKI-1 renal,23.5 µM
same,TGI,CAKI-1 renal,61.1 µM
same,GI50,NCI/ADR-RES ovarian,70.5 µM
same,TGI,NCI/ADR-RES ovarian,> 100 µM
same,GI50,SK-OV-3 ovarian,6.15 µM
same,TGI,SK-OV-3 ovarian,51.1 µM
same,GI50,PC-3 prostate,49.1 µM
same,TGI,PC-3 prostate,> 100 µM
